Measurements taken from ChEMBL document CHEMBL1152855, “Regioselective synthesis of dispiro[1H-indene-2,3'-pyrrolidine-2',3''-[3H]indole]-1,2''(1''H)-diones of potential anti-tumor properties” (2009).

Experiments:
Format in all cases: functional
[1] = system: SNB-19; assay: Growth inhibition of human SNB19 cells at 10 uM after 48 hrs by sulforhodamine B assay; conditions: SNB-19, 48 h, values are per cent of control
[2] = system: Rattus norvegicus; assay: Antiinflammatory activity against carrageenan-induced paw edema in Wister albino rat assessed as inhibition of edema at 50 mg/kg, ip administered 1 hr prior to carrageenan challenge measured after 4 hrs relative to control; conditions: route intraperitoneal
[3] = system: U-251; assay: Growth inhibition of human U251 cells at 10 uM after 48 hrs by sulforhodamine B assay; conditions: U-251, 48 h, values are per cent of control
[4] = system: OVCAR-4; assay: Growth inhibition of human OVCAR4 cells at 10 uM after 48 hrs by sulforhodamine B assay; conditions: OVCAR-4, 48 h, values are per cent of control
[5] = system: CAKI-1; assay: Growth inhibition of human Caki1 cells at 10 uM after 48 hrs by sulforhodamine B assay; conditions: CAKI-1, 48 h, values are per cent of control
[6] = system: SN12C; assay: Growth inhibition of human SN12C cells at 10 uM after 48 hrs by sulforhodamine B assay; conditions: values are per cent of control
[7] = system: SR; assay: Growth inhibition of human SR cells at 10 uM after 48 hrs by sulforhodamine B assay; conditions: values are per cent of control
[8] = system: K562; assay: Growth inhibition of human K562 cells at 10 uM after 48 hrs by sulforhodamine B assay; conditions: K562, 48 h, values are per cent of control
[9] = system: NCI-H522; assay: Growth inhibition of human NCI-H522 cells at 10 uM after 48 hrs by sulforhodamine B assay; conditions: NCI-H522, 48 h, values are per cent of control
[10] = system: T47D; assay: Growth inhibition of human T47D cells at 10 uM after 48 hrs by sulforhodamine B assay; conditions: values are per cent of control
[11] = system: SF-295; assay: Growth inhibition of human SF295 cells at 10 uM after 48 hrs by sulforhodamine B assay; conditions: SF-295, 48 h, values are per cent of control
[12] = system: COLO 205; assay: Growth inhibition of human COLO205 cells at 10 uM after 48 hrs by sulforhodamine B assay; conditions: COLO 205, 48 h, values are per cent of control
[13] = system: SW-620; assay: Growth inhibition of human SW620 cells at 10 uM after 48 hrs by sulforhodamine B assay; conditions: SW-620, 48 h, values are per cent of control
[14] = system: SF-539; assay: Growth inhibition of human SF539 cells at 10 uM after 48 hrs by sulforhodamine B assay; conditions: SF-539, 48 h, values are per cent of control
[15] = system: NCI/ADR-RES; assay: Growth inhibition of human NCI/ADR-RES cells at 10 uM after 48 hrs by sulforhodamine B assay; conditions: values are per cent of control
[16] = system: M14; assay: Growth inhibition of human M14 cells at 10 uM after 48 hrs by sulforhodamine B assay; conditions: M14, 48 h, values are per cent of control
[17] = system: HL-60(TB); assay: Growth inhibition of human HL-60(TB) cells at 10 uM after 48 hrs by sulforhodamine B assay; conditions: HL-60, 48 h, read-out: GI
[18] = system: ACHN; assay: Growth inhibition of human ACHN cells at 10 uM after 48 hrs by sulforhodamine B assay; conditions: values are per cent of control
[19] = system: KM12; assay: Growth inhibition of human KM12 cells at 10 uM after 48 hrs by sulforhodamine B assay; conditions: KM12, 48 h, values are per cent of control
[20] = system: NCI-H460; assay: Growth inhibition of human NCI-H460 cells at 10 uM after 48 hrs by sulforhodamine B assay; conditions: NCI-H460, 48 h, values are per cent of control
[21] = system: UO-31; assay: Growth inhibition of human UO31 cells at 10 uM after 48 hrs by sulforhodamine B assay; conditions: UO-31, 48 h, values are per cent of control
[22] = system: HCT-15; assay: Growth inhibition of human HCT15 cells at 10 uM after 48 hrs by sulforhodamine B assay; conditions: HCT-15, 48 h, values are per cent of control
[23] = system: SK-MEL-5; assay: Growth inhibition of human SK-MEL-5 cells at 10 uM after 48 hrs by sulforhodamine B assay; conditions: SK-MEL-5, 48 h, values are per cent of control

Row | Compound | growth, % of control at 10 µM [1] | inhibition in vivo at 50 mg/kg [2] | growth, % of control at 10 µM [3] | growth, % of control at 10 µM [4] | growth, % of control at 10 µM [5] | growth, % of control at 10 µM [6] | growth, % of control at 10 µM [7] | growth, % of control at 10 µM [8] | growth, % of control at 10 µM [9] | growth, % of control at 10 µM [10] | growth, % of control at 10 µM [11] | growth, % of control at 10 µM [12] | growth, % of control at 10 µM [13] | growth, % of control at 10 µM [14] | growth, % of control at 10 µM [15] | growth, % of control at 10 µM [16] | growth, % of control at 10 µM [17] | growth, % of control at 10 µM [18] | growth, % of control at 10 µM [19] | growth, % of control at 10 µM [20] | further results
1 | [3H]N1C(=O)[C@@]2(c3ccccc31)N(C)C[C@@H](c1ccc(OC)cc1)[C@@]21Cc2ccccc2C1=O | 92.2% | 21.8% | 96.7% | 118% | 85.7% | 105% | 140% | 93.9% | 91% | 97.5% | 103% | 100% | 87.5% | 101% | 89.4% | 97.5% | 72.8% | 98.1% | 95.3% | 107% | growth, % of control at 10 µM [21]: 92.5%; growth, % of control at 10 µM [22]: 107%; growth, % of control at 10 µM [23]: 101%
2 | [3H]C([3H])([3H])N1C(=O)[C@@]2(c3ccccc31)N(C)C[C@@H](c1ccc(OC)cc1)[C@@]21Cc2ccccc2C1=O | 94.1% | 3.8% | 88.4% | 78.8% | 91.1% | 89.1% | 125% | 85.2% | 87% | 93.3% | 89.1% | 104% | 83.3% | 99.9% | 96% | 94.1% | 170% | 82.8% | 98.2% | 95.4% | growth, % of control at 10 µM [21]: 75.5%; growth, % of control at 10 µM [22]: 89.1%; growth, % of control at 10 µM [23]: 88.1%
3 | [3H]N1C(=O)[C@@]2(c3ccccc31)N(C)C[C@@H](c1cccs1)[C@@]21Cc2ccccc2C1=O | 99.8% | 20% | 100% | 93% | 106% | 99.6% | 60.3% | 93.7% | 92.3% | 96% | 105% | 120% | 89.5% | 109% | 97.4% | 103% | 89.7% | 97.9% | 94.3% | 109% | growth, % of control at 10 µM [21]: 95.8%; growth, % of control at 10 µM [22]: 103%; growth, % of control at 10 µM [23]: 114%
